Activity calls are given as the source filed them. The rule behind the calls is not given here.

Assay [1] relates to Exportin-1 (Homo sapiens), O14980 [C528S]. The experiment in a line: Inhibition of human CRM1-C528S mutant assessed as C528 conjugation at 20 uM incubated for 2 hrs before binding by coomassie blue staining based pull-down assay.
Assay [2] has as its system Saccharomyces cerevisiae. The experiment in a line: Inhibition of Yeast GST-tagged/TEV cleavage site fused CRM1 C152/C539/D1034A triple mutant expressed in Escherichia coli BL21 (DE3) assessed as decrease in NES binding at 60 uM measured after 2 hrs by coomassie blue staining based pull-down assay.
Assay [3] has as its target Exportin-1 (Homo sapiens) (UniProt O14980). The experiment in a line: Inhibition of human wild type CRM1 assessed as C528 conjugation at 20 uM incubated for 2 hrs before binding by coomassie blue staining based pull-down assay.
Assay [4] concerns Saccharomyces cerevisiae. The experiment in a line: Inhibition of Yeast GST-tagged/TEV cleavage site fused CRM1 C152/C539 double mutant expressed in Escherichia coli BL21 (DE3) assessed as C1022 conjugation mediated NES inhibition at 60 uM measured after 2 hrs by coomassie blue staining based pull-down assay.
Assay [5] addresses Exportin-1 (Homo sapiens) (UniProt O14980). Kind of assay: Inhibition of human CRM1-WT assessed as C528 conjugation at 1 uM incubated for 2 hrs before binding by coomassie blue staining based pull-down assay.

Exportin-1 (Homo sapiens), sequence (O14980 whole entry, the tested form may be a part): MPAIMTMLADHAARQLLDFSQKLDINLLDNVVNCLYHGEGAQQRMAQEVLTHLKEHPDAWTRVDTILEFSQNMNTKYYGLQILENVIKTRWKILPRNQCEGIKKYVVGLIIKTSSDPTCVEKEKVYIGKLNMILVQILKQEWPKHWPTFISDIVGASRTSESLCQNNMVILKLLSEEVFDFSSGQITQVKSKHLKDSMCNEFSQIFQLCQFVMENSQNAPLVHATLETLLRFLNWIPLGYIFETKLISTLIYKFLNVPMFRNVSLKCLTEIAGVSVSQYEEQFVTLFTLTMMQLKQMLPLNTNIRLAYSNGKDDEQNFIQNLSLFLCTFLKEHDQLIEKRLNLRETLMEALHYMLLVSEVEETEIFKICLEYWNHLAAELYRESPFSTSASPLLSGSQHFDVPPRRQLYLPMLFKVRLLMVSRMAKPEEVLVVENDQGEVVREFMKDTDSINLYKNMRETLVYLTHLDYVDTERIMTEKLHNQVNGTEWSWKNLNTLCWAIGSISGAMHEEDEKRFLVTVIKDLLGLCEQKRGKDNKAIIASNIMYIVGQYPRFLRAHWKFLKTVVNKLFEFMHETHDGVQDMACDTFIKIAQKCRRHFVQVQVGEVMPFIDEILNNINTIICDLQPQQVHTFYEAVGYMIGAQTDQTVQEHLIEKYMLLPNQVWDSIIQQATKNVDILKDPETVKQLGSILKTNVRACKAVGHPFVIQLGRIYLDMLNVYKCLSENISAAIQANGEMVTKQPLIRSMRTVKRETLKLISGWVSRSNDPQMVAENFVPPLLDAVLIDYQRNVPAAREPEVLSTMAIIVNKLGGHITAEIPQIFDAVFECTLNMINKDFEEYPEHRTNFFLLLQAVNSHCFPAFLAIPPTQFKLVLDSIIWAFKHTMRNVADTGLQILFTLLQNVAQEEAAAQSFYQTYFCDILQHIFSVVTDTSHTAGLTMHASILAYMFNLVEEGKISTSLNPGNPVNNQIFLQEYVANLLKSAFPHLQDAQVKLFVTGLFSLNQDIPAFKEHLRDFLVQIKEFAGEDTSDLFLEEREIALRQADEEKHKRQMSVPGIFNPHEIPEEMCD
Exportin-1 (Homo sapiens), O14980 [C528S], sequence (O14980 whole entry C528S, the tested form may be a part): as the sequence (O14980 whole entry, the tested form may be a part) above, with C528S counted along it

In the case of `CC1=CC(=O)c2c(O)cccc2C1=O`, the inhibition entry (in assay [1]; with Saccharomyces cerevisiae [2]; in assay [3]) was “Active” throughout.

Consider `O=C(/C=C\n1cnc(-c2cc(C(F)(F)F)cc(C(F)(F)F)c2)n1)NNc1cnccn1`, for which the inhibition result in assay [1] and in assay [3] was “Active” in each case.

On to `C=C1C(=O)[C@]23[C@H](O)[C@H]1CC[C@H]2[C@@]12CO[C@]3(O)[C@@H](O)[C@@H]1C(C)(C)CC[C@@H]2O`, for which the inhibition result (in assay [1]; in the assay on Saccharomyces cerevisiae [4]; in the assay with Saccharomyces cerevisiae [2]; in assay [3]) was “Active” throughout. For the same compound, in assay [5], the inhibition entry was “inactive”.

(Values after ChEMBL document CHEMBL4842311, “Novel Mechanistic Observations and NES-Binding Groove Features Revealed by the CRM1 Inhibitors Plumbagin and Oridonin” (J Nat Prod, 2021).)
